From patent US8318638B2, “Plant activator” (Shiseido Company, Ltd., priority 1999, dated 2012)

Assays:
Type in all cases: in vivo
[1] = test system: Oryza sativa L. (variety: koshihikari); assay: Growth controlling effect on Oryza sativa L. seedlings (seed immersion)
Experimental: (1) Good-quality seeds of Oryza sativa L. (variety: koshihikari) (200 g) were immersed in water (800 mL) at 10° C. for 13 days. Thereafter, the seeds were equally divided into four groups, and the respective seed groups were immersed in specific ketol fatty acid (I) aqueous solutions (concentration: 0 μM, 1 μM, 10 μM, and 100 μM) (200 mL) at 30° C. for 1.5 days. The immersed seeds were planted in a four-divided seedbed tray, and grown under no light irradiation at 27° C. for three days. Subsequently, the grown seedlings were exposed to the typical outside environment. Six days after the exposure, 18 seedlings were randomly selected from each group, and the heights of the seedlings were measured, and then averaged. […] Subsequently, in consideration of practical handling of seedlings of Oryza sativa L., the effect of application of specific ketol fatty acid (I) was evaluated. […] In order to perform this evaluation, three weeks after the aforementioned light irradiation treatment, seedlings of each group were randomly selected, and the average of the proportions of the second leaves and third leaves was obtained. […] However, unlike the case of promotion of growth of the seedlings, the optimum concentration of the specific ketol fatty acid (I) aqueous solution is 1 μM.

Eustoma russellianum = assay: Growth promotion effect on Eustoma russellianum
[2] = test system: Dianthus caryophyllus (feeling scarlet); assay: Growth promotion effect on Dianthus caryophyllus; conditions: 100 μm aqueous solution sprayed once, 5 mL per plant; FIG. 11
Experimental: Seedlings of Dianthus caryophyllus (feeling scarlet) were planted in early October, and then grown by means of a customary method. In mid-April of the next year, spraying of a 100 μm specific ketol fatty acid (I) aqueous solution was carried out (5 mL per plant), and then the height of the plants was measured.

lettuce = assay: Growth promotion effect on lettuce; conditions: 50 μM aqueous solution sprayed five consecutive days
Experimental: One month after seeding of lettuce, spraying of a 50 μM specific ketol fatty acid (I) aqueous solution was carried out for five consecutive days, and growth of the lettuce (plant width) was observed.

Oryza sativa L. = assay: Growth controlling effect on Oryza sativa L. in paddy field (spraying)
Experimental: (2) Seedlings of Oryza sativa L. were grown in a seedbed in a manner similar to that described in (1), except that the seedlings were immersed in ion-exchange water at 10° C. for 15 days, without application of specific ketol fatty acid (I) described above in (1). Subsequently, the resultant seedlings which had been divided into five groups, each group containing three subgroups (only control group containing four subgroups) and each subgroup containing 16 seedlings, were exposed to the outside environment. Immediately after this exposure, spraying of specific ketol fatty acid (I) was carried out (0 ppm for a first group (control group), 25 ppm for second and third groups, 50 ppm for fourth and fifth groups). Thirty days after the spraying, the seedlings were planted in a paddy field, and additional spraying of specific ketol fatty acid (I) (25 ppm) was carried out for two groups; i.e., the third group (total amount of the acid (I): 25+25 ppm) and the fifth group (total amount of the acid (I): 50+25 ppm). Subsequently, the seedlings of the Oryza sativa L. were grown in the paddy field by means of a customary method. Forty-one days after the above planting, in each group, the plant height and the number of stems per plant (at a section at which four seedlings were planted) were measured, and then averaged.

geranium = assay: Growth promotion effect on geranium; conditions: 80 μM aqueous solution, five consecutive days then once a week for six weeks; mottled and non-mottled leaf types; five-and-a-half months after last spraying; FIG. 8
Experimental: Two weeks after seeding of geranium, spraying of an 80 μM specific ketol fatty acid (I) aqueous solution was carried out for five consecutive days. Furthermore, three months after the start of the test, spraying of an 80 μM specific ketol fatty acid (I) aqueous solution was carried out for six weeks (once a week). Two types of geranium; i.e., geranium having mottled leaves and geranium having leaves of no mottles, were subjected to the test. Five-and-a-half months after the last spraying, the size of the leaves was measured.

Begonia sempaflorens = assay: Growth promotion effect on Begonia sempaflorens; conditions: 80 μm aqueous solution, five consecutive days then once a week for six weeks; four months after last spraying; FIG. 10
Experimental: Two weeks after seeding of Begonia sempaflorens, spraying of an 80 μm specific ketol fatty acid (I) aqueous solution was carried out for five consecutive days. Furthermore, three months after the start of the test, spraying of an 80 μm specific ketol fatty acid (I) aqueous solution was carried out for six weeks (once a week). Four months after the last spraying, the leave size was measured.

chrysanthemum = assay: Growth promotion effect on chrysanthemum; conditions: 80 μM aqueous solution, five consecutive days then once a week for six weeks; four months after the last spraying; FIG. 7
Experimental: Two weeks after seeding of chrysanthemum, spraying of an 80 μm specific ketol fatty acid (I) aqueous solution was carried out for five consecutive days. Furthermore, three months after the start of the test, spraying of an 80 μM specific ketol fatty acid (I) aqueous solution was carried out for six weeks (once a week). Bolting was not observed at a nutrition growth stage of the chrysanthemum. Four months after the last spraying, the plant width was measured.

[3] = test system: carpophores of Lentinus edodes; assay: Growth promotion effect on carpophore of Lentinus edodes (Berk.) Singer; conditions: 5 mL per piece, five days culture at 18° C.
Experimental: Wood (Quercus serrata) containing hyphae of Lentinus edodes was cut into pieces having a length of about 15 cm, and the pieces were immersed in 10° C. water for 24 hours, after which the pieces were allowed to stand in a container of high humidity. Subsequently, specific ketol fatty acid (I) aqueous solutions (concentration: 0 μm, 3 μM, 30 μm, and 100 μM) were applied through spraying to the resultant pieces (six pieces for each group). Each solution was applied to each group (5 mL for each piece). Subsequently, the carpophores of Lentinus edodes were cultured in the same container at 18° C. under weak light irradiation. This culture was continued for five days, and then growth of the carpophores of Lentinus edodes was observed. FIG. 16 is a photograph showing the carpophores of Lentinus edodes cultured in the groups (note: {circumflex over (1)} application of the specific ketol fatty acid (I) (0 μM), (2) (3 μM), (3). (30 μM), and (4) (100 μM)). The average of the carpophores per piece was 0 in the 0 μM application group, 0.17 in the 3 μM application group, 1.0 in the 30 μM application group, and 1.0 in the 100 μM application group.

[4] = fifth group: 50+25 ppm sprayed, 41 days after planting
[5] = fourth group: 50 ppm sprayed, 41 days after planting
[6] = second group: 25 ppm sprayed, 41 days after planting
[7] = third group: 25+25 ppm sprayed, 41 days after planting

Structure (SMILES): CC/C=C\C/C=C\CC(=O)C(O)CCCCCCCC(=O)O (stereo not shown) [specific ketol fatty acid (I), 9-hydroxy-10-oxo-12(Z),15(Z)-octadecadienoic acid]
- optimum concentration of the aqueous solution for controlling growth of the third leaves ([1]; seed immersion, FIG. 13): 1 µM
- heights of the seedlings (degree of growth promotion) ([1]; seeds immersed in 1 μM, 10 μM, 100 μM solutions at 30° C. for 1.5 days, six days after exposure, 18 seedlings, FIG. 12): commensurate with the application amount
- growth of the third leaves (proportions of second and third leaves) ([1]; seeds immersed in 1, 10, 100 μM solutions, three weeks after light irradiation treatment, FIG. 13): exerts the effect of controlling growth of the third leaves
- bolting (Eustoma russellianum; 50 μm aqueous solution sprayed to rosette leaves five consecutive days, three months after seeding): bolting was observed immediately after the spraying
- plant width (Eustoma russellianum; 50 μm aqueous solution, observed for 48 days): did not increase as had been expected
- plant height (Eustoma russellianum; 50 μm aqueous solution, observed for 48 days, FIG. 4): continued to increase 48 days after observation of growth
- height of the plants [2]: growth of the Dianthus caryophyllus plant was promoted
- duration of growth promotion effect (lettuce): maintained 48 days after the start of the test
- growth of the lettuce (plant width) (lettuce; one month after seeding, FIG. 2): exerts the effect of promoting growth of the lettuce
- plant height, difference between groups incl. control (Oryza sativa L.; 25 to 50+25 ppm, 41 days after planting): significant difference was not observed
- number of stems per plant greater than control group (Oryza sativa L.; each of the second through fifth groups): about 10%
- number of stems per plant (Oryza sativa L.; [4]): 37
- plant height (Oryza sativa L.; [4]): 58 cm
- number of stems per plant (Oryza sativa L.; [5]): 38
- plant height (Oryza sativa L.; [5]): 58 cm
- number of stems per plant (Oryza sativa L.; [6]): 38
- plant height (Oryza sativa L.; [6]): 57 cm
- number of stems per plant (Oryza sativa L.; [7]): 39
- plant height (Oryza sativa L.; [7]): 57 cm
- size of the leaves (geranium): growth of the leaves of these two types is promoted
- leave size (Begonia sempaflorens): growth of the leaves is promoted
- plant width (chrysanthemum): increased significantly
- average of the carpophores per piece ([3]; 3 μM sprayed): 0.17
- average of the carpophores per piece ([3]; 30 μM sprayed): 1.0
- average of the carpophores per piece ([3]; 100 μM sprayed): 1.0
